Measurements as given in patent publication US20250129078A1, “ERBB2 INHIBITORS” (Cogent Biosciences, Inc., priority 2023, published 2025).

Biological target: EGFR WT (Homo sapiens (Human), UniProt P00533)
Test: ErbB enzyme assay (CisBio HTRF-KinEASE-TK), EGFR WT
Type: biochemical
Conditions: ATP at Km (25 μM), 1 h incubation
Outline: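 HTRF KinEASE-TK kinase assay, 1 h at ambient temperature with three-fold serial compound dilutions, then 1 h detection with Sa-XL665/TK-Ab-Cryptate. IC50 is the 50 POC point of a 4-parameter logistic fit.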

Chain of EGFR WT (P00533 25-1210): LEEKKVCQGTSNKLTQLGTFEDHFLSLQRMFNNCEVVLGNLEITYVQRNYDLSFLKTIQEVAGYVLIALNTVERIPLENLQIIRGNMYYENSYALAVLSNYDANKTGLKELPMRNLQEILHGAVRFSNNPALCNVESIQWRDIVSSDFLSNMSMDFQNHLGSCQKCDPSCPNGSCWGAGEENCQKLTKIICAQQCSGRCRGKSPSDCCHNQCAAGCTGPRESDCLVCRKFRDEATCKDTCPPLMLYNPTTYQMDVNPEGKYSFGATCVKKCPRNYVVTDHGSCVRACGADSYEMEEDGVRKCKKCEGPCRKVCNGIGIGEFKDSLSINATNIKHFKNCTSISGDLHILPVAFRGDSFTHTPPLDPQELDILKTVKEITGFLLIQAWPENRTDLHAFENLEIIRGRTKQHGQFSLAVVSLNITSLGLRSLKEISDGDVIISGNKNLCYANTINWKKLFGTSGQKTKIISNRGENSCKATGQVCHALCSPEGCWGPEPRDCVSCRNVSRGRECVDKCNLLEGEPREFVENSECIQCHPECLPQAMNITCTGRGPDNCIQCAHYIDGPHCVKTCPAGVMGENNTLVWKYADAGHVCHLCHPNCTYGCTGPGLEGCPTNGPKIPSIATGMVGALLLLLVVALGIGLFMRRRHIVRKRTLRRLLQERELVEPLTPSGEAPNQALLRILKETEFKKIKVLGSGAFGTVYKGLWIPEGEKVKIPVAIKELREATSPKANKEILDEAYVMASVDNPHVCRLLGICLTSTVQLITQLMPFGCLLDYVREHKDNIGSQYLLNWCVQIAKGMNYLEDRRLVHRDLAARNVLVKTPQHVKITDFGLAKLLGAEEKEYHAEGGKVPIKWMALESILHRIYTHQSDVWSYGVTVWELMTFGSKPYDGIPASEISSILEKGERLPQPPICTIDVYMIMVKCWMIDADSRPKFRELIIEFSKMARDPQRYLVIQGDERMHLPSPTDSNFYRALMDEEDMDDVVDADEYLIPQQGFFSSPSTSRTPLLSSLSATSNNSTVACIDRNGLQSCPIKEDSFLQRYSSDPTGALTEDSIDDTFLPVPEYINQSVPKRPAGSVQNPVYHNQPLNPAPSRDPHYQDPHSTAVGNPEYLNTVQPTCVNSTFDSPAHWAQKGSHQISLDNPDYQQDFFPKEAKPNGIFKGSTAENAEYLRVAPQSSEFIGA

Row | Compound | IC50 [µM]
1 | C=CC(=O)N[C@@H]1CCN(c2ccc3ncnc(Nc4ccc(Oc5ccc6c(c5)nnn6C)c(C)c4F)c3n2)C[C@H]1F [Compound 287, N-((3R,4R)-3-fluoro-1-(4-((2-fluoro-3-methyl-4-((1-methyl-1H-benzo[d][1,2,3]triazol-5-yl)oxy)phenyl)amino)pyrido[3,2-d]pyrimidin-6-yl)piperidin-4-yl)acrylamide] | 0.1 to 0.5
2 | C=CC(=O)N1CCN(c2ccc3ncnc(Nc4ccc(Oc5cc6nnn(C)c6c(C)c5F)c(C)c4)c3n2)C[C@H]1C [Compound 288, (R)-1-(4-(4-((4-((6-fluoro-1,7-dimethyl-1H-benzo[d][1,2,3]triazol-5-yl)oxy)-3-methylphenyl)amino)pyrido[3,2-d]pyrimidin-6-yl)-2-methylpiperazin-1-yl)prop-2-en-1-one] | 0.1 to 0.5
3 | C=CC(=O)N1CCN(c2ccc3ncnc(Nc4ccc(Oc5cc(F)c6c(c5)nnn6C)c(C)c4F)c3n2)C[C@@H]1C1CC1 [Compound 292, (S)-1-(2-cyclopropyl-4-(4-((2-fluoro-4-((7-fluoro-1-methyl-1H-benzo[d][1,2,3]triazol-5-yl)oxy)-3-methylphenyl)amino)pyrido[3,2-d]pyrimidin-6-yl)piperazin-1-yl)prop-2-en-1-one] | 0.1 to 0.5
4 | C=CC(=O)N1CCN(c2ccc3ncnc(Nc4ccc(Oc5cc6nnn(C)c6c(F)c5C)c(C)c4F)c3n2)C[C@H]1C [Compound 293, (R)-1-(4-(4-((2-fluoro-4-((7-fluoro-1,6-dimethyl-1H-benzo[d][1,2,3]triazol-5-yl)oxy)-3-methylphenyl)amino)pyrido[3,2-d]pyrimidin-6-yl)-2-methylpiperazin-1-yl)prop-2-en-1-one] | 0.1 to 0.5
5 | C=CC(=O)N[C@H]1CN(c2ccc3ncnc(Nc4ccc(Oc5ccc6c(c5)nnn6C)c(C)c4F)c3n2)C[C@@H]1F [Compound 300, N-((3S,4S)-4-fluoro-1-(4-((2-fluoro-3-methyl-4-((1-methyl-1H-benzo[d][1,2,3]triazol-5-yl)oxy)phenyl)amino)pyrido[3,2-d]pyrimidin-6-yl)pyrrolidin-3-yl)acrylamide] | 0.1 to 0.5
6 | C=CC(=O)N[C@H]1CN(c2ccc3ncnc(Nc4ccc(Oc5ccc6c(c5)nnn6C)c(C)c4F)c3n2)C[C@H]1F [Compound 301, N-((3S,4R)-4-fluoro-1-(4-((2-fluoro-3-methyl-4-((1-methyl-1H-benzo[d][1,2,3]triazol-5-yl)oxy)phenyl)amino)pyrido[3,2-d]pyrimidin-6-yl)pyrrolidin-3-yl)acrylamide] | 0.5 to 1
7 | C=CC(=O)N1CCN(c2ccc3ncnc(Nc4cc(C)c(Oc5ccc6c(c5)nnn6C)cc4OC(F)F)c3n2)C[C@H]1C [Compound 302, (R)-1-(4-(4-((2-(difluoromethoxy)-5-methyl-4-((1-methyl-1H-benzo[d][1,2,3]triazol-5-yl)oxy)phenyl)amino)pyrido[3,2-d]pyrimidin-6-yl)-2-methylpiperazin-1-yl)prop-2-en-1-one] | 0.1 to 0.5
8 | C=CC(=O)N[C@]1(C)CCCN(c2ccc3ncnc(Nc4ccc(Oc5ccc6c(c5)nnn6C)c(C)c4F)c3n2)C1 [Compound 303, (R)-N-(1-(4-((2-fluoro-3-methyl-4-((1-methyl-1H-benzo[d][1,2,3]triazol-5-yl)oxy)phenyl)amino)pyrido[3,2-d]pyrimidin-6-yl)-3-methylpiperidin-3-yl)acrylamide] | < 0.05
9 | C=CC(=O)N1CCN(c2ccc3ncnc(Nc4cc(C)c(Oc5ccc6c(c5)nnn6C)cc4OC(F)F)c3n2)CC1(C)C [Compound 305, 1-(4-(4-((2-(difluoromethoxy)-5-methyl-4-((1-methyl-1H-benzo[d][1,2,3]triazol-5-yl)oxy)phenyl)amino)pyrido[3,2-d]pyrimidin-6-yl)-2,2-dimethylpiperazin-1-yl)prop-2-en-1-one] | 0.1 to 0.5
10 | C=CC(=O)N[C@@H]1CN(c2ccc3ncnc(Nc4ccc(Oc5ccc6c(c5)nnn6C)c(C)c4F)c3n2)CC[C@H]1C [Compound 309, N-((3S,4R)-1-(4-((2-fluoro-3-methyl-4-((1-methyl-1H-benzo[d][1,2,3]triazol-5-yl)oxy)phenyl)amino)pyrido[3,2-d]pyrimidin-6-yl)-4-methylpiperidin-3-y1)acrylamide] | 0.1 to 0.5
11 | C=CC(=O)N1CCN(c2ccc3ncnc(Nc4cc(C)c(Oc5cc(F)c6c(c5)ncn6C)cc4OC)c3n2)C[C@H]1C [Compound 310, (R)-1-(4-(4-((4-((7-fluoro-1-methyl-1H-benzo[d]imidazol-5-yl)oxy)-2-methoxy-5-methylphenyl)amino)pyrido[3,2-d]pyrimidin-6-yl)-2-methylpiperazin-1-yl)prop-2-en-1-one] | 0.1 to 0.5
12 | C=CC(=O)N1CCN(c2ccc3ncnc(Nc4ccc(Oc5ccc6c(c5)nnn6C)c(C)c4)c3n2)CC1CF (stereo not shown) [Compound 313, 1-(2-(fluoromethyl)-4-(4-((3-methyl-4-((1-methyl-1H-benzo[d][1,2,3]triazol-5-yl)oxy)phenyl)amino)pyrido[3,2-d]pyrimidin-6-yl)piperazin-1-yl)prop-2-en-1-one] | < 0.05
13 | C=CC(=O)N1CCN(c2ccc3ncnc(Nc4cc(C)c(Oc5ccn6ncnc6c5)cc4OC)c3n2)C[C@H]1C [Compound 318, (R)-1-(4-(4-((4-([1,2,4]triazolo[1,5-a]pyridin-7-yloxy)-2-methoxy-5-methylphenyl)amino)pyrido[3,2-d]pyrimidin-6-yl)-2-methylpiperazin-1-yl)prop-2-en-1-one] | < 0.05
14 | C=CC(=O)N1CCN(c2ccc3ncnc(Nc4ccc(Oc5cnc6ccnn6c5)c(C)c4)c3n2)CC1 [Compound 319, 1-(4-(4-((3-methyl-4-(pyrazolo[1,5-a]pyrimidin-6-yloxy)phenyl)amino)pyrido[3,2-d]pyrimidin-6-yl)piperazin-1-yl)prop-2-en-1-one] | < 0.05
15 | C=CC(=O)N1CCN(c2ccc3ncnc(Nc4ccc(Oc5ccc6c(c5)nnn6C(F)F)c(C)c4F)c3n2)CC1(C)C [Compound 322, 1-(4-(4-((4-((1-(difluoromethyl)-1H-benzo[d][1,2,3]triazol-5-yl)oxy)-2-fluoro-3-methylphenyl)amino)pyrido[3,2-d]pyrimidin-6-yl)-2,2-dimethylpiperazin-1-yl)prop-2-en-1-one] | 0.5 to 1
16 | C=CC(=O)N1CCN(c2ccc3ncnc(Nc4ccc(Oc5cc6ncnn6cn5)c(C)c4)c3n2)CC1(C)C [Compound 328, 1-(4-(4-((4-([1,2,4]triazolo[1,5-c]pyrimidin-7-yloxy)-3-methylphenyl)amino)pyrido[3,2-d]pyrimidin-6-yl)-2,2-dimethylpiperazin-1-yl)prop-2-en-1-one] | < 0.05
17 | C=CC(=O)N1CCN(c2ccc3ncnc(Nc4ccc(Oc5cc6ncnn6cn5)c(C)c4)c3n2)C[C@H]1C [Compound 329, (R)-1-(4-(4-((4-([1,2,4]triazolo[1,5-c]pyrimidin-7-yloxy)-3-methylphenyl)amino)pyrido[3,2-d]pyrimidin-6-yl)-2-methylpiperazin-1-yl)prop-2-en-1-one] | 0.05 to 0.1
18 | C=CC(=O)N1CCN(c2ccc3ncnc(Nc4ccc(Oc5ccc6c(c5)ncn6C(F)F)c(C)c4)c3n2)C[C@H]1C [Compound 340, (R)-1-(4-(4-((4-((1-(difluoromethyl)-1H-benzo[d]imidazol-5-yl)oxy)-3-methylphenyl)amino)pyrido[3,2-d]pyrimidin-6-yl)-2-methylpiperazin-1-yl)prop-2-en-1-one] | 0.05 to 0.1
19 | C=CC(=O)N[C@H]1CN(c2ccc3ncnc(Nc4ccc(Oc5ccc6c(c5)nnn6C)c(C)c4F)c3n2)CC[C@H]1C [Compound 341, N-((3R,4R)-1-(4-((2-fluoro-3-methyl-4-((1-methyl-1H-benzo[d][1,2,3]triazol-5-yl)oxy)phenyl)amino)pyrido[3,2-d]pyrimidin-6-yl)-4-methylpiperidin-3-yl)acrylamide] | ≥ 1
20 | C=CC(=O)N[C@H]1CCN(c2ccc3ncnc(Nc4ccc(Oc5ccc6c(c5)nnn6C)c(C)c4F)c3n2)CC1(C)C [Compound 343, (S)-N-(1-(4-((2-fluoro-3-methyl-4-((1-methyl-1H-benzo[d][1,2,3]triazol-5-yl)oxy)phenyl)amino)pyrido[3,2-d]pyrimidin-6-yl)-3,3-dimethylpiperidin-4-yl)acrylamide] | 0.1 to 0.5
21 | C=CC(=O)N[C@@H]1CCN(c2ccc3ncnc(Nc4ccc(Oc5ccc6c(c5)nnn6C)c(C)c4F)c3n2)CC1(C)C [Compound 344, (R)-N-(1-(4-((2-fluoro-3-methyl-4-((1-methyl-1H-benzo[d][1,2,3]triazol-5-yl)oxy)phenyl)amino)pyrido[3,2-d]pyrimidin-6-yl)-3,3-dimethylpiperidin-4-yl)acrylamide] | 0.1 to 0.5
22 | C=CC(=O)N[C@H]1CN(c2ccc3ncnc(Nc4ccc(Oc5ccc6c(c5)nnn6C)c(C)c4F)c3n2)CC[C@@H]1C [Compound 350, N-((3R,4S)-1-(4-((2-fluoro-3-methyl-4-((1-methyl-1H-benzo[d][1,2,3]triazol-5-yl)oxy)phenyl)amino)pyrido[3,2-d]pyrimidin-6-yl)-4-methylpiperidin-3-yl)acrylamide] | 0.1 to 0.5
23 | C=CC(=O)N1C[C@@H](N(C)c2ccc3ncnc(Nc4ccc(Oc5ccc6c(c5)nnn6C)c(C)c4F)c3n2)CC[C@H]1C [Compound 352, 1-((2R,5S)-5-((4-((2-fluoro-3-methyl-4-((1-methyl-1H-benzo[d][1,2,3]triazol-5-yl)oxy)phenyl)amino)pyrido[3,2-d]pyrimidin-6-yl)(methyl)amino)-2-methylpiperidin-1-yl)prop-2-en-1-one] | 0.1 to 0.5
24 | Cc1cc(Nc2ncnc3ccc(N4CC5CCC(C4)N5C(=O)/C=C/C(F)F)nc23)ccc1Oc1ccc2c(c1)nnn2C [Compound 358, (E)-4,4-difluoro-1-(3-(4-((3-methyl-4-((1-methyl-1H-benzo[d][1,2,3]triazol-5-yl)oxy)phenyl)amino)pyrido[3,2-d]pyrimidin-6-yl)-3,8-diazabicyclo[3.2.1]octan-8-yl)but-2-en-1-one] | 0.05 to 0.1
25 | Cc1cc(Nc2ncnc3ccc(N4CC5CC(C4)N5C(=O)/C=C/C(F)F)nc23)ccc1Oc1ccc2c(c1)nnn2C [Compound 359, (E)-4,4-difluoro-1-(3-(4-((3-methyl-4-((1-methyl-1H-benzo[d][1,2,3]triazol-5-yl)oxy)phenyl)amino)pyrido[3,2-d]pyrimidin-6-yl)-3,6-diazabicyclo[3.1.1]heptan-6-yl)but-2-en-1-one] | 0.1 to 0.5
